In PubChem BioAssay (NCI):
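Dose response: 5 concentrations. Exposure: 48 h. Format: 96-well plates. Endpoint: linear interpolation; highest concentration if not reached. TGI is the concentration that stops growth completely.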

Columns and labels:
Test in all cases: DTP human tumour cell line panel, 48 h
MCF7 breast = system: MCF7 breast
SN12C renal = system: SN12C renal
LOX IMVI melanoma = system: LOX IMVI melanoma
IGROV1 ovarian = system: IGROV1 ovarian
HOP-92 NSCLC = system: HOP-92 NSCLC
HCT-15 colon = system: HCT-15 colon
M14 melanoma = system: M14 melanoma
A549 NSCLC = system: A549 NSCLC
HL-60(TB) leukemia = system: HL-60(TB) leukemia
MOLT-4 leukemia = system: MOLT-4 leukemia
UACC-257 melanoma = system: UACC-257 melanoma
SNB-19 CNS = system: SNB-19 CNS
NCI-H23 lung = system: NCI-H23 lung
KM12 colon = system: KM12 colon
BT-549 breast = system: BT-549 breast
SK-MEL-5 melanoma = system: SK-MEL-5 melanoma
CCRF-CEM leukemia = system: CCRF-CEM leukemia
NCI-H522 lung = system: NCI-H522 lung
ACHN renal = system: ACHN renal
OVCAR-8 ovarian = system: OVCAR-8 ovarian
SW-620 colon = system: SW-620 colon
CAKI-1 renal = system: CAKI-1 renal
786-0 renal = system: 786-0 renal
UACC-62 melanoma = system: UACC-62 melanoma
PC-3 prostate = system: PC-3 prostate
EKVX NSCLC = system: EKVX NSCLC
SF-268 CNS = system: SF-268 CNS
OVCAR-4 ovarian = system: OVCAR-4 ovarian
SNB-75 CNS = system: SNB-75 CNS
K-562 leukemia = system: K-562 leukemia
SF-295 CNS = system: SF-295 CNS
HT29 colon = system: HT29 colon
RXF 393 renal = system: RXF 393 renal
NCI/ADR-RES ovarian = system: NCI/ADR-RES ovarian
MDA-MB-231 breast = system: MDA-MB-231 breast
RPMI-8226 leukemia = system: RPMI-8226 leukemia
DU-145 prostate = system: DU-145 prostate
HCC-2998 colon = system: HCC-2998 colon
TK-10 renal = system: TK-10 renal
COLO 205 colon = system: COLO 205 colon
NCI-H460 lung = system: NCI-H460 lung
SR leukemia = system: SR leukemia
NCI-H226 lung = system: NCI-H226 lung
SK-MEL-28 melanoma = system: SK-MEL-28 melanoma
UO-31 renal = system: UO-31 renal
SK-OV-3 ovarian = system: SK-OV-3 ovarian
MALME-3M melanoma = system: MALME-3M melanoma
T-47D breast = system: T-47D breast
MDA-MB-435 = system: MDA-MB-435
MDA-N = system: MDA-N
HOP-62 NSCLC = system: HOP-62 NSCLC
SF-539 CNS = system: SF-539 CNS
OVCAR-3 ovarian = system: OVCAR-3 ovarian
OVCAR-5 ovarian = system: OVCAR-5 ovarian
SK-MEL-2 melanoma = system: SK-MEL-2 melanoma
U251 CNS = system: U251 CNS
HCT-116 colon = system: HCT-116 colon
A498 renal = system: A498 renal

CC(C)(C)C1=NC(=S)SC2=NC(=O)C3(NN21)c1ccccc1-c1ccccc13
TGI (MCF7 breast): > 10 µM
TGI (SN12C renal): > 10 µM
TGI (LOX IMVI melanoma): > 10 µM
TGI (IGROV1 ovarian): > 10 µM
TGI (HOP-92 NSCLC): > 10 µM
TGI (HCT-15 colon): > 10 µM
TGI (M14 melanoma): > 10 µM
TGI (A549 NSCLC): > 10 µM
TGI (HL-60(TB) leukemia): > 10 µM
TGI (MOLT-4 leukemia): > 10 µM
TGI (UACC-257 melanoma): > 10 µM
TGI (SNB-19 CNS): > 10 µM
TGI (NCI-H23 lung): > 10 µM
TGI (KM12 colon): > 10 µM
TGI (BT-549 breast): > 10 µM
TGI (SK-MEL-5 melanoma): > 10 µM
TGI (CCRF-CEM leukemia): > 10 µM
TGI (NCI-H522 lung): > 10 µM
TGI (ACHN renal): > 10 µM
TGI (OVCAR-8 ovarian): > 10 µM
TGI (SW-620 colon): > 10 µM
TGI (CAKI-1 renal): > 10 µM
TGI (786-0 renal): > 10 µM
TGI (UACC-62 melanoma): > 10 µM
TGI (PC-3 prostate): > 10 µM
TGI (EKVX NSCLC): > 10 µM
TGI (SF-268 CNS): > 10 µM
TGI (OVCAR-4 ovarian): > 10 µM
TGI (SNB-75 CNS): > 10 µM
TGI (K-562 leukemia): > 10 µM
TGI (SF-295 CNS): > 10 µM
TGI (HT29 colon): > 10 µM
TGI (RXF 393 renal): > 10 µM
TGI (NCI/ADR-RES ovarian): > 10 µM
TGI (MDA-MB-231 breast): > 10 µM
TGI (RPMI-8226 leukemia): > 10 µM
TGI (DU-145 prostate): > 10 µM
TGI (HCC-2998 colon): > 10 µM
TGI (TK-10 renal): > 10 µM
TGI (COLO 205 colon): > 10 µM
TGI (NCI-H460 lung): > 10 µM
TGI (SR leukemia): > 10 µM
TGI (NCI-H226 lung): > 10 µM
TGI (SK-MEL-28 melanoma): > 10 µM
TGI (UO-31 renal): > 10 µM
TGI (SK-OV-3 ovarian): > 10 µM
TGI (MALME-3M melanoma): > 10 µM
TGI (T-47D breast): > 10 µM
TGI (MDA-MB-435): > 10 µM
TGI (MDA-N): > 10 µM
TGI (HOP-62 NSCLC): > 10 µM

C=C1[C@@H](OC(C)=O)[C@H]2[C@@H](OC(C)=O)[C@@](C)(OC(C)=O)C[C@]2(OC(C)=O)C(=O)[C@@H](C)/C=C/C(C)(C)C(=O)C[C@H]1OC(C)=O
TGI (MCF7 breast): > 100 µM
TGI (SN12C renal): > 100 µM
TGI (LOX IMVI melanoma): > 100 µM
TGI (IGROV1 ovarian): > 100 µM
TGI (HOP-92 NSCLC): > 100 µM
TGI (HCT-15 colon): > 100 µM
TGI (M14 melanoma): > 100 µM
TGI (A549 NSCLC): > 100 µM
TGI (MOLT-4 leukemia): > 100 µM
TGI (SF-539 CNS): > 100 µM
TGI (UACC-257 melanoma): > 100 µM
TGI (SNB-19 CNS): > 100 µM
TGI (NCI-H23 lung): > 100 µM
TGI (KM12 colon): > 100 µM
TGI (SK-MEL-5 melanoma): > 100 µM
TGI (CCRF-CEM leukemia): > 100 µM
TGI (NCI-H522 lung): > 100 µM
TGI (ACHN renal): > 100 µM
TGI (OVCAR-8 ovarian): > 100 µM
TGI (CAKI-1 renal): > 100 µM
TGI (786-0 renal): > 100 µM
TGI (UACC-62 melanoma): > 100 µM
TGI (PC-3 prostate): > 100 µM
TGI (EKVX NSCLC): > 100 µM
TGI (OVCAR-3 ovarian): > 100 µM
TGI (OVCAR-5 ovarian): > 100 µM
TGI (OVCAR-4 ovarian): > 100 µM
TGI (SNB-75 CNS): > 100 µM
TGI (K-562 leukemia): > 100 µM
TGI (SF-295 CNS): > 100 µM
TGI (HT29 colon): > 100 µM
TGI (RXF 393 renal): > 100 µM
TGI (NCI/ADR-RES ovarian): > 100 µM
TGI (MDA-MB-231 breast): > 100 µM
TGI (RPMI-8226 leukemia): > 100 µM
TGI (DU-145 prostate): > 100 µM
TGI (HCC-2998 colon): > 100 µM
TGI (TK-10 renal): > 100 µM
TGI (COLO 205 colon): > 100 µM
TGI (NCI-H226 lung): > 100 µM
TGI (SK-MEL-28 melanoma): > 100 µM
TGI (UO-31 renal): > 100 µM
TGI (SK-OV-3 ovarian): > 100 µM
TGI (SK-MEL-2 melanoma): > 100 µM
TGI (U251 CNS): > 100 µM
TGI (MALME-3M melanoma): > 100 µM
TGI (HCT-116 colon): > 100 µM
TGI (T-47D breast): > 100 µM
TGI (MDA-MB-435): > 100 µM
TGI (MDA-N): > 100 µM
TGI (HOP-62 NSCLC): > 100 µM

Cc1ccc(N=NC(=O)NNc2ccc(C)c([N+](=O)[O-])c2)cc1[N+](=O)[O-]
TGI (MCF7 breast): 69.5 µM
TGI (SN12C renal): > 100 µM
TGI (LOX IMVI melanoma): 36.7 µM
TGI (IGROV1 ovarian): > 100 µM
TGI (HCT-15 colon): > 100 µM
TGI (M14 melanoma): > 100 µM
TGI (A549 NSCLC): > 100 µM
TGI (HL-60(TB) leukemia): 50.4 µM
TGI (MOLT-4 leukemia): 65.5 µM
TGI (UACC-257 melanoma): 88.3 µM
TGI (SNB-19 CNS): > 100 µM
TGI (NCI-H23 lung): > 100 µM
TGI (BT-549 breast): > 100 µM
TGI (SK-MEL-5 melanoma): 77.7 µM
TGI (CCRF-CEM leukemia): > 100 µM
TGI (NCI-H522 lung): 36.8 µM
TGI (ACHN renal): 90.3 µM
TGI (OVCAR-8 ovarian): > 100 µM
TGI (SW-620 colon): > 100 µM
TGI (CAKI-1 renal): > 100 µM
TGI (786-0 renal): 90.4 µM
TGI (UACC-62 melanoma): 50.2 µM
TGI (PC-3 prostate): > 100 µM
TGI (OVCAR-3 ovarian): 57.4 µM
TGI (OVCAR-5 ovarian): > 100 µM
TGI (SF-268 CNS): > 100 µM
TGI (OVCAR-4 ovarian): 82.6 µM
TGI (SNB-75 CNS): 95.9 µM
TGI (K-562 leukemia): 50.3 µM
TGI (A498 renal): 63.2 µM
TGI (HT29 colon): > 100 µM
TGI (MDA-MB-231 breast): > 100 µM
TGI (RPMI-8226 leukemia): 85.8 µM
TGI (DU-145 prostate): > 100 µM
TGI (HCC-2998 colon): 33 µM
TGI (TK-10 renal): > 100 µM
TGI (NCI-H460 lung): 77 µM
TGI (SR leukemia): > 100 µM
TGI (NCI-H226 lung): > 100 µM
TGI (SK-MEL-28 melanoma): 77.4 µM
TGI (UO-31 renal): 82.8 µM
TGI (SK-MEL-2 melanoma): 30.3 µM
TGI (U251 CNS): > 100 µM
TGI (MALME-3M melanoma): 83.3 µM
TGI (HCT-116 colon): > 100 µM
TGI (T-47D breast): > 100 µM
TGI (MDA-MB-435): > 100 µM
TGI (MDA-N): > 100 µM
TGI (HOP-62 NSCLC): 63.5 µM
